pIC50, pKi: −log10 of the molar value.
Legend:
[1] = target: Tumour suppressor p53/oncoprotein Mdm2 (Homo sapiens, UniProt Q00987); assay: (§1) Inhibition of p53-MDM2 expressed in Escherichia coli BL-21 (DE3) after 1 hr by fluorescence polarization competitive binding assay
[2] = target: Tumour suppressor p53/oncoprotein Mdm2 (Homo sapiens, UniProt P04637+Q00987); assay: as §1
HCT-116 = assay: Antiproliferative activity against human HCT116 cells expressing wild type p53 after 72 hrs by MTT assay; conditions: for pIC50: Homo sapiens, HCT-116, 72 h
PC-3 = assay: Antiproliferative activity against p53 deficient human PC3 cells after 72 hrs by MTT assay; conditions: PC-3, 72 h
A549 [3] = assay: Antiproliferative activity against human A549 cells expressing wild type p53 after 72 hrs by MTT assay; conditions: A549, 72 h
A549 [4] = assay: Cell cycle arrest in human A549 cells expressing wild type p53 assessed as accumulation at G0/G1 phase at 10 uM after 72 hrs using propidium iodide staining by flow cytometric analysis (reference value: 73.28%); format: functional
A549 [5] = assay: Cell cycle arrest in human A549 cells expressing wild type p53 assessed as accumulation at G2/M phase at 10 uM after 72 hrs using propidium iodide staining by flow cytometric analysis (reference value: 7.49%); format: functional
A549 [6] = assay: Cell cycle arrest in human A549 cells expressing wild type p53 assessed as accumulation at S phase at 10 uM after 72 hrs using propidium iodide staining by flow cytometric analysis (reference value: 19.23%); format: functional
KB = assay: Antiproliferative activity against human KB cells expressing p53 mutant after 72 hrs by MTT assay; format: functional, cell-based

Chain of Tumour suppressor p53/oncoprotein Mdm2 (Homo sapiens, UniProt P04637+Q00987) (P04637 whole entry): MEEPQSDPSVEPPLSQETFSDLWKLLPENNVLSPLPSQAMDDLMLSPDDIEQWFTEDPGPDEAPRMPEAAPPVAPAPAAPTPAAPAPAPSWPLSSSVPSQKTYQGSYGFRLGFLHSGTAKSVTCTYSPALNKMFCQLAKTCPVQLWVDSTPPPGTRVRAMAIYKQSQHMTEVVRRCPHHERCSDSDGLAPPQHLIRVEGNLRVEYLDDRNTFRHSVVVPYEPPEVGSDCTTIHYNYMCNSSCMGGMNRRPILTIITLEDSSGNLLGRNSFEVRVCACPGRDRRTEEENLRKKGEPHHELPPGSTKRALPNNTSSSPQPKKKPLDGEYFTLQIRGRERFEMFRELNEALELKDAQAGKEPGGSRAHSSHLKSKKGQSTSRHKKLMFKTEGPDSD
Chain of Tumour suppressor p53/oncoprotein Mdm2 (Homo sapiens, UniProt P04637+Q00987) (Q00987 whole entry): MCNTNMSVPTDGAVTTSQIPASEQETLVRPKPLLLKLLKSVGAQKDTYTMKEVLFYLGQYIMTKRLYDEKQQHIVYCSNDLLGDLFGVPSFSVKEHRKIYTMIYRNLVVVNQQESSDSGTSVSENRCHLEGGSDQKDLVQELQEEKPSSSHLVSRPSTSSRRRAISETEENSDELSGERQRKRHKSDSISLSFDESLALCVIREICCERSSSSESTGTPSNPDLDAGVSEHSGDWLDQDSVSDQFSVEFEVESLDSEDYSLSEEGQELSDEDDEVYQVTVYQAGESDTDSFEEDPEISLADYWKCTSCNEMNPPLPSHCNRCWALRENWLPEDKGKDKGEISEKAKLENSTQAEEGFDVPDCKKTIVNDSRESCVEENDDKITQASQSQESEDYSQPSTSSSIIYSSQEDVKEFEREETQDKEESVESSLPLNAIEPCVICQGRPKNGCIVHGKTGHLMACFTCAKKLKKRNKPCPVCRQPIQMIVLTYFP
Chain of Tumour suppressor p53/oncoprotein Mdm2 (Homo sapiens, UniProt Q00987) (P04637 whole entry): as the sequence (P04637 whole entry) above
Chain of Tumour suppressor p53/oncoprotein Mdm2 (Homo sapiens, UniProt Q00987) (Q00987 whole entry): as the sequence (Q00987 whole entry) above

Question: How did the pKi [1] turn out when COc1ccc(C2=NC(c3ccc(Cl)cc3)C(c3ccc(Cl)cc3)N2C(=O)CN2CCN(C)CC2)c(OC(C)C)c1 (configuration not stated) was run?
Answer: 4.59

Question: How did the Ki [2] turn out when COc1ccc(C2=NC(c3ccc(C(F)(F)F)cc3)C(c3ccc(C(F)(F)F)cc3)N2C(=O)N2CCN(C(C)=O)CC2)c(OC(C)C)c1 (configuration not stated) was run?
Answer: Not Active

Question: Which Ki [2] does the source give for CCC1=NC(c2ccc(Cl)cc2)C(c2ccc(Cl)cc2)N1C(=O)NCC(=O)N1CCOCC1 (configuration not stated) here?
Answer: Not Active

Question: CCN(CC)CCC(=O)N1C(c2ccc(OC)cc2OC(C)C)=NC(c2ccc(Cl)cc2)C1c1ccc(Cl)cc1 (configuration not stated) was tested. Which pIC50 (HCT-116) did it give?
Answer: 5.43

Question: What about the pKi [1] of the same compound?
Answer: 5.91

Question: And the pIC50 (PC-3)?
Answer: 5.48

Question: And the pIC50 (A549 [3])?
Answer: 5.42

Question: How did the pKi [1] turn out when COc1ccc(C2=NC(c3ccc(Cl)cc3)C(c3ccc(Cl)cc3)N2C(=O)CN2CCCCC2)c(OC(C)C)c1 (configuration not stated) was run?
Answer: 4.09

Question: How did the Ki [2] turn out when CCN(CC)CC(=O)N1C(c2ccc(OC)cc2OC(C)C)=NC(c2ccc(Cl)cc2)C1c1ccc(Cl)cc1 (configuration not stated) was run?
Answer: Not Active

Question: For CCN(CC)CC(=O)N1C(c2ccc(OC)cc2OC(C)C)=NC(c2ccccc2)C1c1ccccc1 (configuration not stated), which Ki [2] is on record?
Answer: Not Active

Question: With CCC1=NC(c2ccc(Cl)cc2)C(c2ccc(Cl)cc2)N1C(=O)N1CCN(C)CC1 (configuration not stated) as the compound, how does the Ki [2] read?
Answer: Not Active

Question: COc1ccc(C2=NC(c3ccc(Cl)cc3)C(c3ccc(Cl)cc3)N2C(=O)N2CCOCC2)c(OC(C)C)c1 (configuration not stated) was tested. Which pKi [1] did it give?
Answer: 5.39

Question: CCOC(=O)CN(C)C(=O)N1C(c2ccc(OC)cc2OC(C)C)=NC(c2ccc(Cl)cc2)C1c1ccc(Cl)cc1 (configuration not stated) was tested. Which pKi [1] did it give?
Answer: 5.80

Question: How did the pKi [1] turn out when COc1ccc(C2=NC(c3ccc(Cl)cc3)C(c3ccc(Cl)cc3)N2C(=O)OCc2ccccc2)c(OC(C)C)c1 (configuration not stated) was run?
Answer: 4.49

Question: How did the pKi [1] turn out when COc1ccc(C2=NC(c3ccc(Cl)cc3)C(c3ccc(Cl)cc3)N2C(=O)N2CCC(C(=O)O)CC2)c(OC(C)C)c1 (configuration not stated) was run?
Answer: 5.06

Question: What does the source list for COc1ccc(C2=NC(c3ccc(Cl)cc3)C(c3ccc(Cl)cc3)N2C(=O)N2CCN(C(C)=O)CC2)c(OC(C)C)c1 (configuration not stated)?
Answer: pIC50 (HCT-116): 5.34; pIC50 (PC-3): 4.53; Activity (A549 [4]): 66.95%; pIC50 (A549 [3]): 5.63; Activity (A549 [5]): 19.27%; Activity (A549 [6]): 13.78%; pIC50 (KB): 4.45

Question: COc1ccc(C2=NC(c3ccc(Cl)cc3)C(c3ccc(Cl)cc3)N2C(=O)CN2CCOCC2)c(OC(C)C)c1 (configuration not stated) was tested. Which pKi [1] did it give?
Answer: 5.58

Question: With COc1ccc(C2=NC(c3ccc(Cl)cc3)C(c3ccc(Cl)cc3)N2C(=O)CCN2CCN(C)CC2)c(OC(C)C)c1 (configuration not stated) as the compound, how does the pIC50 (HCT-116) read?
Answer: 5.27

Question: And the pKi [1]?
Answer: 6.05

Question: And the pIC50 (PC-3)?
Answer: 5.07

Question: And the pIC50 (A549 [3])?
Answer: 5.50

Question: What about the pIC50 (KB) of the same compound?
Answer: 5.24

Question: With COc1ccc(C2=NC(c3ccc(Cl)cc3)C(c3ccc(Cl)cc3)N2C(=O)N(C)C)c(OC(C)C)c1 (configuration not stated) as the compound, how does the pKi [1] read?
Answer: 5.48

Question: CCOCCOC(=O)N1C(c2ccc(OC)cc2OC(C)C)=NC(c2ccc(Cl)cc2)C1c1ccc(Cl)cc1 (configuration not stated) was tested. Which pKi [1] did it give?
Answer: 5.86

Question: Which results are given for COc1ccc(C2=NC(c3ccc(Cl)cc3)C(c3ccc(Cl)cc3)N2C(=O)CCN2CCOCC2)c(OC(C)C)c1 (configuration not stated)?
Answer: pIC50 (HCT-116): 5.12; pKi [1]: 5.89; pIC50 (PC-3): 5.56; pIC50 (A549 [3]): 5.42

Question: What does the source list for COc1ccc(C2=NC(c3ccc(Cl)cc3)C(c3ccc(Cl)cc3)N2C(=O)OCCN(C)C)c(OC(C)C)c1 (configuration not stated)?
Answer: IC50 (HCT-116; hct-116): Not Active; pKi [1]: 6.24; pIC50 (PC-3): 4.96; pIC50 (A549 [3]): 4.96; pIC50 (KB): 5.08

Question: CCC1=NC(c2ccc(Cl)cc2)C(c2ccc(Cl)cc2)N1C(=O)Nc1ccc(N2CCCC2)cc1 (configuration not stated) was tested. Which Ki [2] did it give?
Answer: Not Active

Question: How did the Ki [2] turn out when CCC1=NC(c2ccc(Cl)cc2)C(c2ccc(Cl)cc2)N1C(=O)N(CC)CC (configuration not stated) was run?
Answer: Not Active

Question: COc1ccc(C2=NC(c3ccc(Cl)cc3)C(c3ccc(Cl)cc3)N2C(=O)NCC(=O)N2CCOCC2)c(OC(C)C)c1 (configuration not stated) was tested. Which pIC50 (HCT-116) did it give?
Answer: 4.96

Question: What about the pKi [1] of the same compound?
Answer: 6.32

Question: And the pIC50 (PC-3)?
Answer: 4.84

Question: And the pIC50 (A549 [3])?
Answer: 5.08

Question: And the pIC50 (KB)?
Answer: 5.13

Question: How did the pKi [1] turn out when COCCOC(=O)N1C(c2ccc(OC)cc2OC(C)C)=NC(c2ccc(Cl)cc2)C1c1ccc(Cl)cc1 (configuration not stated) was run?
Answer: 5.64

Question: How did the pIC50 (HCT-116) turn out when COc1ccc(C2=NC(c3ccc(Cl)cc3)C(c3ccc(Cl)cc3)N2C(=O)OCCNC(C)=O)c(OC(C)C)c1 (configuration not stated) was run?
Answer: 5.24

Question: And the pKi [1]?
Answer: 6.22

Question: And the pIC50 (PC-3)?
Answer: 4.48

Question: And the Activity (A549 [4])?
Answer: 61.67%

Question: And the pIC50 (A549 [3])?
Answer: 5.04

Question: And the Activity (A549 [5])?
Answer: 30.93%

Question: And the Activity (A549 [6])?
Answer: 7.4%

Question: What about the pIC50 (KB) of the same compound?
Answer: 5.44

Question: For COc1ccc(C2=NC(c3ccccc3)C(c3ccccc3)N2C(=O)CN2CCN(C)CC2)c(OC(C)C)c1 (configuration not stated), which Ki [2] is on record?
Answer: Not Active

Question: Which Ki [2] does the source give for COc1ccc(C2=NC(c3ccc(C(F)(F)F)cc3)C(c3ccc(C(F)(F)F)cc3)N2C(=O)CN2CCN(C(C)=O)CC2)c(OC(C)C)c1 (configuration not stated) here?
Answer: Not Active

— ChEMBL document CHEMBL1817600, “Design, synthesis, and biological evaluation of imidazoline derivatives as p53-MDM2 binding inhibitors” (Bioorg Med Chem, 2011)
